# Reference: patent US20120269815A1, “NEUROTROPHINS AND USES THEREOF” (Regents of the University of Minnesota, priority 2008, published 2012)
# No end group written: not given here.
# Tested on: unknown receptor expressed in COS7 cell
# Test: Fluorescence-labeled TUF1 peptide binding to control (pCMV-GFP) COS7 cells
# Conditions: labeled peptide 5 nM, COS7 cells transfected with pCMV-GFP
# Protocol: COS7 cells were seeded at 10,000 cells/well onto a 18 mm coverslip in a 12-well plate. Cells were allowed to settle overnight in a cell culture incubator (NuAire NU-8600, NuAire, Inc., Plymouth, Minn.) set at 37° C. and 5% CO2. Cells were transfected with pCMV-eGFP (Clontech Laboratories, Inc., Mountain View, Calif.) or pCMV-SPORT6-p75 (ATCC) using Fugene HD (Roche Diagnostics Corp., Indianapolis, Ind.) and were incubated overnight. The binding assays were carried out according to Horton et al. with modifications. Synthetic TUF1 peptides (TUF1[43-54] (SEQ ID NO:1) and TUF1[24-40] (SEQ ID NO:3) were generated (via Sigma Genosys, Sigma-Aldrich Co. St. Louis, Mo.) and were conjugated per manufacturer's recommendation with DyLight 549 NHS Ester (Thermo Fisher Scientific, Waltham, Mass.), which have similar spectra to Cy3 dye. Unconjugated dye was removed with a dye removal column (Thermo Fisher Scientific, Waltham, Mass.). Labeled peptides were diluted to 5 nM in 0.15 M Sucrose/PBS and added (1.0 ml/well) to transfected COS7 cells. The binding reaction was incubated in the dark at room temperature for 90 minutes. Cells were rinsed thoroughly with PBS+0.05% Tween-20 to remove unbound peptide. Cells were then fixed with 4% Paraformaldehyde (5 minutes). […]
sequence,measurement,value
AYKSYVRALPLL [TUF1[43-54]],binding to unknown receptor expressed in COS7 cell,binds to an unknown receptor expressed in COS7 cell at a low level
